The record followed here is the SangsterLogP compilation.

The nature of data set [1]: method code SF, from DOI: 10.2307/3575799, PMID: 7199747. Particulars: pH 7.4.
A short description of data set [2]: method code SF-AS, from DOI: 10.2307/3575799, PMID: 7199747. The note with it: pH 7.4.

SMILES strings stand for the structures.

Broadly, the logD is the decadic logarithm of the distribution of all forms, ionised or not, between an organic phase and buffer at a given pH. Lower therefore signals a more hydrophilic compound. On to `CC(C(=O)NCC(O)CO)n1ccnc1[N+](=O)[O-]` (stereo not given), for which, in data set [1], the logD was -1.64.
On the same count and under the same terms, for `NC(=O)Cn1ccnc1[N+](=O)[O-]` the value was -1.22.
As for `CC(O)CN(CC(C)O)C(=O)Cn1ccnc1[N+](=O)[O-]` (stereo not given), in data set [2], the pH-dependent lipophilicity (logD) is -0.96.
Same read-out and setting: for `CC(=O)OCCN(CCOC(C)=O)C(=O)Cn1ccnc1[N+](=O)[O-]` the value was -0.64.
In data set [1], `CCC(=O)OCCN(CCOC(=O)CC)C(=O)Cn1ccnc1[N+](=O)[O-]` had a pH-dependent lipophilicity (logD) of 0.44.
Same read-out and setting: the value for `O=C(Cn1ccnc1[N+](=O)[O-])NC(CO)(CO)CO` was -1.77.
Turning to `CC(=O)OCC(CNC(=O)Cn1ccnc1[N+](=O)[O-])OC(C)=O` (stereo not given), the logD in data set [2] was -0.77.
As for `O=C(Cn1ccnc1[N+](=O)[O-])N(CCO)CCO`, the pH-dependent lipophilicity (logD) in data set [1] is -1.59.
For the molecule `O=COCCN(CCOC=O)C(=O)Cn1ccnc1[N+](=O)[O-]`, the logD in data set [1] is -1.66.
The same measure, in the same setting: for `CC(C(=O)NCCO)n1ccnc1[N+](=O)[O-]` (stereo not given) the value was -1.16.
